Key:
[1] = type: physicochemical; conditions: pH 7.4
[2] = type: physicochemical; conditions: pH 6.5
[3] = human, serum

SMILES	ANS fluorescence intensity with increasing peptide concentration (self-assembly) [1]	self-assembled morphology by TEM [2]	remaining at 24 h [3] [%]
CCCCCCCCCCCCCCNCCCC[C@@H]1NC(=O)CNC(=O)[C@H](CCCCNCCCCCCCCCCCCCC)NC(=O)[C@@H](N)CSSC[C@@H]2NC(=O)[C@@H]3CSSC[C@@H](C(N)=O)NC(=O)[C@H](CCCCN)NC(=O)CNC(=O)[C@H](CO)NC(=O)[C@H](CCCNC(=N)N)NC(=O)[C@H](CSSC[C@H](NC(=O)[C@H](CCCCN)NC(=O)[C@H](C)NC(=O)CNC1=O)C(=O)N[C@@H](CO)C(=O)N[C@@H](CCCNC(=N)N)C(=O)N[C@@H](CC(C)C)C(=O)N[C@@H](CCSC)C(=O)N[C@@H](Cc1ccc(O)cc1)C(=O)N[C@@H](CC(=O)O)C(=O)N3)NC(=O)[C@H](CO)NC(=O)CNC(=O)[C@H]([C@@H](C)O)NC2=O [K2-K4-MVIIA]	significant increase in fluorescence intensity	nanomicellar structures	75.6
CSCC[C@@H]1NC(=O)[C@H](CC(C)C)NC(=O)[C@H](CCCNC(=N)N)NC(=O)[C@H](CO)NC(=O)[C@@H]2CSSC[C@@H]3NC(=O)[C@H](CO)NC(=O)CNC(=O)[C@H]([C@@H](C)O)NC(=O)[C@H](CSSC[C@H](N)C(=O)N[C@@H](CCCCN)C(=O)NCC(=O)N[C@@H](CCCCN)C(=O)NCC(=O)N[C@@H](C)C(=O)N[C@@H](CCCCN)C(=O)N2)NC(=O)[C@H](CSSC[C@@H](C(N)=O)NC(=O)[C@H](CCCCN)NC(=O)CNC(=O)[C@H](CO)NC(=O)[C@H](CCCNC(=N)N)NC3=O)NC(=O)[C@H](CC(=O)O)NC(=O)[C@H](Cc2ccc(O)cc2)NC1=O [MVIIA, ω-conotoxin MVIIA, reference compound]	almost no increase in fluorescence intensity	oligomers	
CCCCCCCCCCCCCCNCCCC[C@@H]1NC(=O)[C@@H](N)CSSC[C@@H]2NC(=O)[C@@H]3CSSC[C@@H](C(N)=O)NC(=O)[C@H](CCCCN)NC(=O)CNC(=O)[C@H](CO)NC(=O)[C@H](CCCNC(=N)N)NC(=O)[C@H](CSSC[C@H](NC(=O)[C@H](CCCCN)NC(=O)[C@H](C)NC(=O)CNC(=O)[C@H](CCCCN)NC(=O)CNC1=O)C(=O)N[C@@H](CO)C(=O)N[C@@H](CCCNC(=N)N)C(=O)N[C@@H](CC(C)C)C(=O)N[C@@H](CCSC)C(=O)N[C@@H](Cc1ccc(O)cc1)C(=O)N[C@@H](CC(=O)O)C(=O)N3)NC(=O)[C@H](CO)NC(=O)CNC(=O)[C@H]([C@@H](C)O)NC2=O [K2-MVIIA]	significant increase in fluorescence intensity	nanomicellar structures	78.7
